The source of these data is patent US20240409585A1, “MACROCYCLIC IMMUNOMODULATORS” (priority 2021, published 2024).

Molecules are shown by their SMILES. Numbered stars: 1 amine (or outer) side, 2 acyl side, 3 side chain; on linkers, the order of the positions; unused ones are H or OH. Bridge positions count the residues as written; N and C are the ends. Square brackets hold non-standard residues; d marks the D form. Peptide text beside a SMILES is read from it. * marks the point of attachment. ξ: configuration not given here. X19 = Cc1cccc(-c2ccc(C[C@H](N[*:1])C(=O)[*:2])cc2)c1; Phe(4-COOH) = N[C@@H](Cc1ccc(C(=O)O)cc1)C(=O)O; Phe(4-CH2NH2) = NCc1ccc(C[C@H](N)C(=O)O)cc1; Bip = N[C@@H](Cc1ccc(-c2ccccc2)cc1)C(=O)O; Phe(3-OMe) = COc1cccc(C[C@H](N)C(=O)O)c1; Phe(3-Me) = Cc1cccc(C[C@H](N)C(=O)O)c1; Val(3-OH) = CC(C)(O)[C@H](N)C(=O)O; aIle = CC[C@@H](C)[C@H](N)C(=O)O; hPhe = N[C@@H](CCc1ccccc1)C(=O)O; 3Pal = N[C@@H](Cc1cccnc1)C(=O)O; 4Pal = N[C@@H](Cc1ccncc1)C(=O)O; Cha = N[C@@H](CC1CCCCC1)C(=O)O; Cit = NC(=O)NCCC[C@H](N)C(=O)O; NMeOrn = CN[C@@H](CCCN)C(=O)O; Thr(3ξ) = CC(O)[C@H](N)C(=O)O; Ala(CN) = N#CC[C@H](N)C(=O)O; Pip = O=C(O)[C@@H]1CCCCN1; Carboxymethyl = O=C(O)C*; NMeA = CN[C@@H](C)C(=O)O; Dab = NCC[C@H](N)C(=O)O; Dap = NC[C@H](N)C(=O)O; ξV = CC(C)C(N)C(=O)O

T1 sequence (Q15116 25-288): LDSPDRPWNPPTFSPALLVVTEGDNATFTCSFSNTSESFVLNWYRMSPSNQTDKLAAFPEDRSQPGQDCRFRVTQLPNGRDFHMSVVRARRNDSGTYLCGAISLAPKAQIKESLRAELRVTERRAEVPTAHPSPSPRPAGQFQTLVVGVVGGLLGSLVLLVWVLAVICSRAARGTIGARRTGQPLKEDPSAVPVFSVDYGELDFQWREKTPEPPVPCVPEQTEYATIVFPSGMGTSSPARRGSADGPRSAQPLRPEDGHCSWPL

This assay addresses T1, PE-labeled human PD-L1-Ig binding to Jurkat cell line over-expressing human PD-1 (Jurkat-PD-1) (Homo sapiens, UniProt Q15116).
T1 construct: expressed in transfected cells; host or cells: Jurkat
As to the kind of experiment: Jurkat-PD-1 Cell Binding High-Content Screening Assay (CBA): Method 1. The conditions noted are these: Jurkat-hPD-1 cells, PE-labeled PD-L1-Ig 20 nM final; read-out: Jurkat HPDL1 PD1 IC50 (uM) (Method 1).
For `CCNC(=O)[C@H](CCN)NC(=O)[C@@H]1CSCC(=O)N[C@@H](CCc2ccccc2)C(=O)N[C@@H](Cc2ccc(OCC(=O)O)cc2)C(=O)N[C@@H](CC(=O)O)C(=O)N[C@@H](Cc2cccc(C)c2)C(=O)N[C@@H](Cc2ccc(OCC(=O)O)cc2)C(=O)N[C@@H](Cc2ccc(-c3ccccc3)cc2)C(=O)N[C@@H](Cc2ccc(OCC(=O)O)cc2)C(=O)N(C)[C@@H](C)C(=O)N[C@H](CC(C)C)C(=O)N[C@@H](CCN)C(=O)N[C@@H](CC2CCCCC2)C(=O)N[C@@H](C(C)C)C(=O)N[C@@H]([C@@H](C)O)C(=O)N1` [Compound 1855] ({CH2CO}-[hPhe]Y(Carboxymethyl)D[Phe(3-Me)]Y(Carboxymethyl)[Bip]Y(Carboxymethyl)[NMeA][dL][Dab][Cha]VTC[Dab]-NHEt; thioether N-14), the IC50 stood at 0.01 µM.
Turning to `CC[C@H](C)[C@@H]1NC(=O)[C@H](Cc2ccc(-c3ccccc3)cc2)NC(=O)[C@H](C(C)C)NC(=O)[C@H](Cc2c[nH]c3ccccc23)NC(=O)[C@H](CC(=O)O)NC(=O)[C@H](Cc2ccc(OCC(=O)O)cc2)NC(=O)[C@H](CC(N)=O)NC(=O)CSC[C@@H](C(=O)N[C@@H](C)C(N)=O)NC(=O)[C@H]([C@@H](C)O)NC(=O)[C@H](C(C)C)NC(=O)[C@H](CC(C)C)NC(=O)[C@H](CCN)NC(=O)[C@@H](CC(C)C)NC(=O)[C@H](C)N(C)C1=O` [Compound 1396] ({CH2CO}-NY(Carboxymethyl)DWV[Bip]I[NMeA][dL][Dab]LVTCA-NH2; thioether N-14), the IC50 came out at 0.01 µM.
With `Cc1cccc(C[C@@H]2NC(=O)[C@H](CC(=O)O)NC(=O)[C@H](Cc3ccc(OCC(=O)O)cc3)NC(=O)[C@H](CN)NC(=O)CSC[C@@H](C(N)=O)NC(=O)[C@H](CCC(N)=O)NC(=O)[C@H](C(C)C)NC(=O)[C@H](CC3CCCCC3)NC(=O)[C@H](CCN)NC(=O)[C@@H](CC(C)C)NC(=O)[C@@H]3CCCCN3C(=O)[C@H](Cc3ccc(OCC(=O)O)cc3)NC(=O)[C@H](Cc3ccc(-c4ccccc4)cc3)NC(=O)[C@H](Cc3ccc(OCC(=O)O)cc3)NC2=O)c1` [Compound 1896] ({CH2CO}-[Dap]Y(Carboxymethyl)D[Phe(3-Me)]Y(Carboxymethyl)[Bip]Y(Carboxymethyl)[Pip][dL][Dab][Cha]VQC-NH2; thioether N-14), the IC50 is 0.19 µM.
Then `COc1cccc(C[C@@H]2NC(=O)[C@H](Cc3ccccc3)NC(=O)CSC[C@@H](C(=O)N[C@@H](C)C(N)=O)NC(=O)[C@H](CO)NC(=O)[C@H](C(C)C)NC(=O)[C@H](CC(C)C)NC(=O)[C@H](CC(N)=O)NC(=O)[C@@H](C)NC(=O)[C@H](C)N(C)C(=O)[C@H](C(C)C)NC(=O)[C@H](Cc3ccc(-c4ccccc4)cc3)NC(=O)[C@H](CC(C)C)NC(=O)[C@H](Cc3c[nH]c4ccccc34)NC(=O)[C@H](CC(=O)O)NC2=O)c1` [Compound 1732] ({CH2CO}-F[Phe(3-OMe)]DWL[Bip]V[NMeA][dA]NLVSCA-NH2; thioether N-14), with 0.01 µM; and `Cc1cccc(C[C@@H]2NC(=O)[C@H](CC(=O)O)NC(=O)[C@H](Cc3ccc(OCC(=O)O)cc3)NC(=O)[C@H](Cc3ccncc3)NC(=O)CSC[C@@H](C(=O)N[C@@H](CCN)C(N)=O)NC(=O)[C@H](C(C)O)NC(=O)[C@H](C(C)(C)O)NC(=O)[C@H](CC3CCCCC3)NC(=O)[C@H](CCN)NC(=O)[C@@H](CC(C)C)NC(=O)[C@H](C)N(C)C(=O)[C@H](Cc3ccc(OCC(=O)O)cc3)NC(=O)[C@H](Cc3ccc(-c4ccccc4)cc3)NC(=O)[C@H](Cc3ccc(C(=O)O)cc3)NC2=O)c1` (stereo partly drawn) [Compound 2146] ({CH2CO}-[4Pal]Y(Carboxymethyl)D[Phe(3-Me)][Phe(4-COOH)][Bip]Y(Carboxymethyl)[NMeA][dL][Dab][Cha][Val(3-OH)][Thr(3ξ)]C[Dab]-NH2; thioether N-14), with 0.01 µM; and `Cc1cccc(C[C@@H]2NC(=O)[C@H](CC(=O)O)NC(=O)[C@H](Cc3ccc(OCC(=O)O)cc3)NC(=O)[C@H](Cc3ccncc3)NC(=O)CSC[C@@H](C(=O)N[C@@H](CCN)C(N)=O)NC(=O)[C@H](CO)NC(=O)[C@H](C(C)(C)O)NC(=O)[C@H](CC3CCCCC3)NC(=O)[C@H](CCN)NC(=O)[C@@H](CC(C)C)NC(=O)[C@H](CCCN)N(C)C(=O)[C@H](Cc3ccc(OCC(=O)O)cc3)NC(=O)[C@H](Cc3ccc(-c4ccccc4)cc3)NC(=O)[C@H](Cc3ccc(OCC(=O)O)cc3)NC2=O)c1` [Compound 1836] ({CH2CO}-[4Pal]Y(Carboxymethyl)D[Phe(3-Me)]Y(Carboxymethyl)[Bip]Y(Carboxymethyl)[NMeOrn][dL][Dab][Cha][Val(3-OH)]SC[Dab]-NH2; thioether N-14), with 0.67 µM.
The figure for `CC(C)C[C@@H]1NC(=O)[C@H](CCN)NC(=O)[C@@H](CC(C)C)NC(=O)[C@H](C)N(C)C(=O)[C@H](CCCNC(N)=O)NC(=O)[C@H](Cc2ccc(-c3ccccc3)cc2)NC(=O)[C@H](C(C)C)NC(=O)[C@H](Cc2c[nH]c3ccccc23)NC(=O)[C@H](CC(=O)O)NC(=O)[C@H](Cc2ccncc2)NC(=O)[C@H](Cc2cccnc2)NC(=O)CSC[C@@H](C(=O)N[C@@H](C)C(N)=O)NC(=O)[C@H]([C@@H](C)O)NC(=O)[C@H](C(C)C)NC1=O` [Compound 1333] ({CH2CO}-[3Pal][4Pal]DWV[Bip][Cit][NMeA][dL][Dab]LVTCA-NH2; thioether N-14) is 0.02 µM; for `Cc1cccc(C[C@@H]2NC(=O)[C@H](CC(=O)O)NC(=O)[C@H](Cc3ccc(OCC(=O)O)cc3)NC(=O)[C@H](Cc3ccncc3)NC(=O)CSC[C@@H](C(N)=O)NC(=O)[C@H](CC(N)=O)NC(=O)[C@H](C(C)C)NC(=O)[C@H](CC3CCCCC3)NC(=O)[C@H](CCN)NC(=O)[C@@H](CC(C)C)NC(=O)[C@H](C)N(C)C(=O)[C@H](Cc3ccc(OCC(=O)O)cc3)NC(=O)[C@H](Cc3ccc(-c4ccccc4)cc3)NC(=O)[C@H](Cc3ccc(OCC(=O)O)cc3)NC2=O)c1` [Compound 1663] ({CH2CO}-[4Pal]Y(Carboxymethyl)D[Phe(3-Me)]Y(Carboxymethyl)[Bip]Y(Carboxymethyl)[NMeA][dL][Dab][Cha]VNC-NH2; thioether N-14) it is 0.01 µM.
As for `CC[C@H](C)[C@@H]1NC(=O)[C@H](Cc2ccc(-c3ccccc3)cc2)NC(=O)[C@H](C(C)(C)O)NC(=O)[C@H](Cc2cccc(C)c2)NC(=O)[C@H](CC(=O)O)NC(=O)[C@H](Cc2ccc(O)cc2)NC(=O)[C@H](CC(N)=O)NC(=O)CSC[C@@H](C(=O)N[C@H](C)C(N)=O)NC(=O)[C@H](CCC(=O)O)NC(=O)[C@H](C(C)(C)O)NC(=O)[C@H](CC2CCCCC2)NC(=O)[C@H](CCN)NC(=O)[C@@H](CC(C)C)NC(=O)[C@H](C)N(C)C1=O` [Compound 1700] ({CH2CO}-NYD[Phe(3-Me)][Val(3-OH)][Bip]I[NMeA][dL][Dab][Cha][Val(3-OH)]EC[dA]-NH2; thioether N-14), the IC50 is 0.18 µM.
The figure for `Cc1cccc(-c2ccc(C[C@@H]3NC(=O)[C@H](CC(C)C)NC(=O)[C@H](Cc4c[nH]c5ccccc45)NC(=O)[C@H](CC(=O)O)NC(=O)[C@H](Cc4ccc(O)cc4)NC(=O)[C@H](Cc4ccccc4)NC(=O)CSC[C@@H](C(=O)N[C@@H](C)C(N)=O)NC(=O)[C@H](CO)NC(=O)[C@H](C(C)C)NC(=O)[C@H](CC(C)C)NC(=O)[C@H](CC(N)=O)NC(=O)[C@@H](C)NC(=O)[C@H](C)N(C)C(=O)[C@H](C(C)C)NC3=O)cc2)c1` [Compound 1788] ({CH2CO}-FYDWL[X19]V[NMeA][dA]NLVSCA-NH2; thioether N-14) is 0.11 µM.
Turning to `CC(C)C[C@@H]1NC(=O)[C@H](Cc2c[nH]c3ccccc23)NC(=O)[C@H](CC(=O)O)NC(=O)[C@H](Cc2ccc(CN)cc2)NC(=O)[C@H](Cc2ccccc2)NC(=O)CSC[C@@H](C(=O)N[C@@H](C)C(N)=O)NC(=O)[C@H](CO)NC(=O)[C@H](C(C)C)NC(=O)[C@H](CC(C)C)NC(=O)[C@H](CC(N)=O)NC(=O)[C@@H](C)NC(=O)[C@H](C)N(C)C(=O)[C@H](C(C)C)NC(=O)[C@H](Cc2ccc(-c3ccccc3)cc2)NC1=O` [Compound 1750] ({CH2CO}-F[Phe(4-CH2NH2)]DWL[Bip]V[NMeA][dA]NLVSCA-NH2; thioether N-14), the IC50 is 0.02 µM.
Turning to `CC(C)C[C@@H]1NC(=O)[C@H](Cc2c[nH]c3ccccc23)NC(=O)[C@H](CC(=O)O)NC(=O)[C@H](Cc2ccc(O)cc2)NC(=O)[C@H](Cc2ccccc2)NC(=O)CSC[C@@H](C(=O)NCC(N)=O)NC(=O)[C@H](CO)NC(=O)[C@H](C(C)C)NC(=O)[C@H](CC(C)C)NC(=O)[C@H](CC(=O)O)NC(=O)[C@H](CCCCN)NC(=O)[C@H](C)N(C)C(=O)[C@H](C(C)C)NC(=O)[C@H](Cc2ccc(-c3ccccc3)cc2)NC1=O` [Compound 1826] ({CH2CO}-FYDWL[Bip]V[NMeA]KDLVSCG-NH2; thioether N-14), the concentration for half-maximal inhibition (IC50) was 0.76 µM.
`CC[C@@H](C)[C@@H]1NC(=O)[C@H](Cc2ccc(-c3ccccc3)cc2)NC(=O)[C@H](CC#N)NC(=O)[C@H](Cc2c[nH]c3ccccc23)NC(=O)[C@H](CC(=O)O)NC(=O)[C@H](Cc2ccc(C(=O)O)cc2)NC(=O)[C@H](Cc2ccc(OCC(=O)O)cc2)NC(=O)CSC[C@@H](C(=O)N[C@@H](CCCCN)C(N)=O)NC(=O)[C@H](CO)NC(=O)C(C(C)C)NC(=O)[C@H](CC(C)C)NC(=O)[C@H](CC(N)=O)NC(=O)[C@@H](CC(C)C)NC(=O)[C@H](C)N(C)C1=O` (stereo partly drawn) [Compound 2102] ({CH2CO}-Y(Carboxymethyl)[Phe(4-COOH)]DW[Ala(CN)][Bip][aIle][NMeA][dL]NL[ξV]SCK-NH2; thioether N-14): the IC50 came out at 0.19 µM.
As for `Cc1cccc(C[C@@H]2NC(=O)[C@H](CC(=O)O)NC(=O)[C@H](Cc3ccc(OCC(=O)O)cc3)NC(=O)[C@H](CN)NC(=O)CSC[C@@H](C(=O)N[C@@H](C)C(N)=O)NC(=O)[C@H](CO)NC(=O)[C@H](C(C)C)NC(=O)[C@H](CC(C)C)NC(=O)[C@H](CC(N)=O)NC(=O)[C@@H](C)NC(=O)[C@H](C)N(C)C(=O)[C@H](C(C)C)NC(=O)[C@H](Cc3ccc(-c4ccccc4)cc3)NC(=O)[C@H](CC(C)C)NC2=O)c1` [Compound 1582] ({CH2CO}-[Dap]Y(Carboxymethyl)D[Phe(3-Me)]L[Bip]V[NMeA][dA]NLVSCA-NH2; thioether N-14), the IC50 came out at 0.02 µM.
